Assays:
[1] = test system: HCV replicon cells (2209-23), genotype 1b replicon in human hepatoma Huh7 cells; assay: HCV replicon assay (Renilla luciferase reporter); assay type: cell-based, HCV genotype 1b; conditions: Hepatitis C virus, Huh-7, 72 h; 2209-23 cells, three days incubation
[2] = biological target: T1, HCV polymerase (NS5B570n-Con1) (Hepatitis C virus genotype 1b, UniProt Q9WMX2); assay: HCV NS5B RNA polymerase activity (incorporation of radiolabeled nucleotide into acid insoluble RNA); assay type: biochemical, HCV Con1 strain
T1 construct: a 21 amino acid C-terminal deletion of full-length HCV polymerase; made in house; host or cells: E. coli BL21(DE3) pLysS, plasmid pET17b
Method: The enzymatic activity of HCV polymerase (NS5B570n-Con1) was measured as the incorporation of radiolabeled nucleotide monophosphates into acid insoluble RNA products. Unincorporated radiolabeled substrate was removed by filtration and scintillant was added to the washed and dried filter plate containing radiolabeled RNA product. The amount of RNA product generated by NS5B570n-Con1 at the end of the reaction was directly proportional to the amount of light emitted by the scintillant.
The HCV polymerase used in the enzymatic activity assay is a 21 amino acid C-terminal deletion of full-length HCV polymerase derived from HCV Con1 strain, genotype 1b (GenBank accession number AJ242654) (NS5B570n-Con1). The NS5B570n-Con1 was sub-cloned downstream to the T7 promoter of the plasmid expression construct pET17b and transformed into E. coli strain BL21(DE3) pLysS for protein expression. A single colony was used to start an innoculum for a 10 L culture in LB media supplemented with 100 μg/mL ampicillin at 37° C. Protein expression was induced by the addition of 0.25 mM isopropyl-β-D-thiogalactopyranoside (IPTG) when the optical density of the culture at […] was 0.8. Induction of protein expression was carried out at 30° C. for 16 h after which the cells were harvested by centrifugation. NS5B570n-Con1 was purified to homogeneity using a three-column purification protocol including subsequent column chromatography on Ni-NTA, SP-Sepharose HP and Superdex 75 resins.
Enzymatic reactions in the presence of cIRES RNA template (see paragraph [00213]) contained 20 nM cIRES RNA, 20 nM NS5B570n-Con1 enzyme, 0.5 μCi of tritiated UTP (Perkin Elmer catalog no. TRK-412; specific activity: 30 to 60 Ci/mmol;), 1 μM each ATP, CTP, and GTP, 40 mM Tris-HCl pH 8.0, 40 mM NaCl, 4 mM DTT (dithiothreitol), 4 mM MgCl2, 5 μl of compound serial diluted in DMSO, and nuclease-free water to a final reaction volume of 50 μl. Enzymatic reactions in the presence of poly A RNA template (see paragraph [00213]) contained 20 nM Poly A:oligo(rU)16 premixed (see section 0004), 20 nM NS5B570n-Con1 enzyme, 1 μCi of tritiated UTP (Perkin Elmer catalog no. TRK-412; specific activity: 30 to 60 Ci/mmol), 40 mM Tris-HCl pH 8.0, 40 mM NaCl, 4 mM DTT (dithiothreitol), 4 mM MgCl2, 5 μl of compound serial diluted in DMSO, and nuclease-free water to a final reaction volume of 50 μl. Reaction mixtures were assembled in 96-well filter plates (cat #MADVN0B, Millipore Co.) and incubated for 2 h at 30° C. Reactions were stopped by addition of 10% final (v/v) trichloroacetic acid and incubated for 40 min at 4° C. Reactions were filtered, washed with 8 reaction volumes of 10% (v/v) trichloroacetic acetic acid, 4 reaction volumes of 70% (v/v) ethanol, air dried, and 25 μl of scintillant (Microscint 20, Perkin-Elmer) was added to each reaction well.
Two RNA templates were used to assay compounds described herein. The cIRES RNA template was 377 nucleotide long and consisted of a partial complementary sequence (36 nucleotides) of the core protein, followed by 341 nucleotide of the complementary sequence of the internal ribosome entry site. The poly A RNA template (GE Amersham catalog number 27-4110) was a homopolymeric RNA pre-annealed to a oligo(rU)16 primer at a molar ratio of 3-to-1 (primer-template).
The amount of light emitted from the scintillant was converted to counts per minute (CPM) on a Topcount® plate reader (Perkin-Elmer, Energy Range: Low, Efficiency Mode: Normal, Count Time: 1 min, Background Subtract: none, Cross talk reduction: Off).
Data was analyzed in Excel® (Microsoft®) and ActivityBase® (Idbs®). The reaction in the absence of enzyme was used to determine the background signal, which was subtracted from the enzymatic reactions. Positive control reactions were performed in the absence of compound, from which the background corrected activity was set as 100% polymerase activity. All data was expressed as a percentage of the positive control. […]

| SMILES | IC50 [1] [nM] | IC50 [2] [nM] |
| --- | --- | --- |
| Cc1cc(N)n2nc(-c3ccc(-c4cc5c(s4)c(=O)ncn5Cc4ccc(Cl)cc4)cc3Cl)cc2n1 [Compound I-2, 6-[4-(7-Amino-5-methyl-pyrazolo[1,5-a]pyrimidin-2-yl)-3-chloro-phenyl]-1-(4-chloro-benzyl)-1H-thieno[3,2-d]pyrimidin-4-one] | 4.1 | 4 |
| Cc1ccc(Cn2cnc(=O)c3sc(-c4ccc(-c5cc6nc(C)cc(N)n6n5)cc4)cc32)cc1 [Compound I-38, 6-[4-(7-Amino-5-methyl-pyrazolo[1,5-a]pyrimidin-2-yl)-phenyl]-1-(4-methyl-benzyl)-1H-thieno[3,2-d]pyrimidin-4-one] | 47.2 | 210 |

From US20110070190A1 (Roche Palo Alto LLC, priority 2009, published 2011)
